Laboratory results taken from article PMC5908784, “Extracellular loops 2 and 3 of the calcitonin receptor selectively modify agonist binding and efficacy” (Biochemical Pharmacology, 2018).
Substitutions are numbered along the chain they refer to. Where a SMILES comes first, the peptide text is derived from it. Bridges are numbered along the chain shown (N, C = ends).

Assays:
Assay in all cases: cAMP accumulation
Assay type in all cases: cell-based
Settings in all cases: mean ± S.E.M.; for Emax: cAMP maximal response, SEM; for EC50: cAMP, CV1-FlpIn cells, 30 min, IBMX
[1] = target: T1, hCTR H296A (Homo sapiens, UniProt P30988, H296A)
T1 construct: c-Myc (N); expressed in transfected cells
T1 sequence (P30988 25-474 H296A): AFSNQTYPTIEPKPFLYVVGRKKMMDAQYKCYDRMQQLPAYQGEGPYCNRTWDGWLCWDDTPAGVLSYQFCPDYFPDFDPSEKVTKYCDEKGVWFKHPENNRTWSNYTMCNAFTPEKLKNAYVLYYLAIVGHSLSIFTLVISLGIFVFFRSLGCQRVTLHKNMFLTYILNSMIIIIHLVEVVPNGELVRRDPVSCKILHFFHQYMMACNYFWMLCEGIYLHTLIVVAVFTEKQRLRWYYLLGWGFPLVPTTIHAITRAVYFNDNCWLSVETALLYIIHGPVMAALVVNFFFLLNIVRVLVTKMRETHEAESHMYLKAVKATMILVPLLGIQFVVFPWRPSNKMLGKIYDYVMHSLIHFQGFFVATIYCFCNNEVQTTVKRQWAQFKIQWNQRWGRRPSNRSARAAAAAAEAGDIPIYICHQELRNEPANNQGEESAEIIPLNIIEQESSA
Procedure: (§1) Cells (2.5 × 10^4 cells/well) were seeded into 96-well plates and incubated overnight. Cells were stimulated with increasing concentrations of ligands for 30 min in the presence of IBMX. The liquid was discarded, changed to absolute ethanol and volatilized to dryness at room temperature. […] Data were normalized to the response of 100 μM forskolin.
(§2) Data were corrected for radioligand occupancy using the Cheng-Prusoff equation in Prism; as such data are reported as pKi. Emax and EC50 were estimated from concentration-response curves using with a 3-parameter logistic equation in Prism (v7). These values are a composite of functional affinity, efficacy and stimulus response coupling. […] Significance was accepted at P < 0.05.

[2] = target: T2, hCTR I300A (Homo sapiens, UniProt P30988, I300A)
T2 construct: c-Myc (N); expressed in transfected cells
T2 sequence (P30988 25-474 I300A): T1 sequence (P30988 25-474 H296A) with A272H, I276A
Procedure: as §1, §2

[3] = target: T3, hCTR M367A (Homo sapiens, UniProt P30988, M367A)
T3 construct: c-Myc (N); expressed in transfected cells
T3 sequence (P30988 25-474 M367A): T1 sequence (P30988 25-474 H296A) with A272H, M343A
Procedure: as §1, §2

[4] = target: T4, hCTR R281A (Homo sapiens, UniProt P30988, R281A)
T4 construct: expressed in transfected cells
T4 sequence (P30988 25-474 R281A): T1 sequence (P30988 25-474 H296A) with R257A, A272H
Procedure: as §1, §2

[5] = target: T5, hCTR W361A (Homo sapiens, UniProt P30988, W361A)
T5 construct: expressed in transfected cells
T5 sequence (P30988 25-474 W361A): T1 sequence (P30988 25-474 H296A) with A272H, W337A
Procedure: as §1, §2

| Compound | Emax [1] [%] | Emax [2] [%] | Emax [3] [%] | Emax [4] [%] | Emax [5] [%] | EC50 [1] [nM] | EC50 [2] [nM] | EC50 [3] [nM] | EC50 [4] [nM] | EC50 [5] [nM] |
| --- | --- | --- | --- | --- | --- | --- | --- | --- | --- | --- |
| CC(C)C[C@H](NC(=O)[C@H](CCCCN)NC(=O)CNC(=O)[C@H](CC(C)C)NC(=O)[C@@H](NC(=O)[C@@H]1CSSC[C@H](N)C(=O)N[C@@H](CO)C(=O)N[C@@H](CC(N)=O)C(=O)N[C@@H](CC(C)C)C(=O)N[C@@H](CO)C(=O)N[C@@H]([C@@H](C)O)C(=O)N1)C(C)C)C(=O)N[C@@H](CO)C(=O)N[C@@H](CCC(N)=O)C(=O)N[C@@H](CCC(=O)O)C(=O)N[C@@H](CC(C)C)C(=O)N[C@@H](Cc1c[nH]cn1)C(=O)N[C@@H](CCCCN)C(=O)N[C@@H](CC(C)C)C(=O)N[C@@H](CCC(N)=O)C(=O)N[C@H](C(=O)N[C@@H](Cc1ccc(O)cc1)C(=O)N1CCC[C@H]1C(=O)N[C@@H](CCCNC(=N)N)C(=O)N[C@H](C(=O)N[C@@H](CC(N)=O)C(=O)N[C@H](C(=O)NCC(=O)N[C@@H](CO)C(=O)NCC(=O)N[C@H](C(=O)N1CCC[C@H]1C(N)=O)[C@@H](C)O)[C@@H](C)O)[C@@H](C)O)[C@@H](C)O [sCT] | 86 ± 5 | 113 ± 11 | 79 ± 3 | 119 ± 5 | 126 ± 7 |  |  |  |  |  |
| CC(C)C[C@H](NC(=O)[C@H](CC(N)=O)NC(=O)[C@H](CC(N)=O)NC(=O)[C@H](CO)NC(=O)[C@H](CO)NC(=O)[C@H](CCCNC(=N)N)NC(=O)[C@@H](NC(=O)[C@H](CC(C)C)NC(=O)[C@H](Cc1ccccc1)NC(=O)[C@H](CC(N)=O)NC(=O)[C@H](C)NC(=O)[C@H](CC(C)C)NC(=O)[C@H](CCCNC(=N)N)NC(=O)[C@H](CCC(N)=O)NC(=O)[C@@H](NC(=O)[C@H](C)NC(=O)[C@@H]1CSSC[C@H](NC(=O)[C@@H](N)CCCCN)C(=O)N[C@@H](CC(N)=O)C(=O)N[C@@H]([C@@H](C)O)C(=O)N[C@@H](C)C(=O)N[C@@H]([C@@H](C)O)C(=O)N1)[C@@H](C)O)C(C)C)C(=O)NCC(=O)N1CCC[C@H]1C(=O)N[C@H](C(=O)N[C@@H](CC(C)C)C(=O)N1CCC[C@H]1C(=O)N1CCC[C@H]1C(=O)N[C@H](C(=O)N[C@@H](CC(N)=O)C(=O)N[C@H](C(=O)NCC(=O)N[C@@H](CO)C(=O)N[C@@H](CC(N)=O)C(=O)N[C@H](C(=O)N[C@@H](Cc1ccc(O)cc1)C(N)=O)[C@@H](C)O)C(C)C)[C@@H](C)O)C(C)C [rAmy] | 107 ± 18 | 109 ± 10 | 93 ± 8 | 63 ± 14 | 102 ± 13 |  |  |  |  |  |
| CC[C@H](C)[C@H](NC(=O)[C@H](C)NC(=O)[C@@H](NC(=O)[C@H](CCC(N)=O)NC(=O)[C@@H]1CCCN1C(=O)[C@H](Cc1ccccc1)NC(=O)[C@@H](NC(=O)[C@H](Cc1c[nH]cn1)NC(=O)[C@H](Cc1ccccc1)NC(=O)[C@H](CCCCN)NC(=O)[C@H](CC(N)=O)NC(=O)[C@H](Cc1ccccc1)NC(=O)[C@H](CC(=O)O)NC(=O)[C@H](CCC(N)=O)NC(=O)[C@@H](NC(=O)[C@H](Cc1ccc(O)cc1)NC(=O)[C@@H](NC(=O)CNC(=O)[C@H](CC(C)C)NC(=O)[C@H](CCSC)NC(=O)[C@@H]1CSSC[C@H](N)C(=O)NCC(=O)N[C@@H](CC(N)=O)C(=O)N[C@@H](CC(C)C)C(=O)N[C@@H](CO)C(=O)N[C@@H]([C@@H](C)O)C(=O)N1)[C@@H](C)O)[C@@H](C)O)[C@@H](C)O)[C@@H](C)O)C(=O)NCC(=O)N[C@H](C(=O)NCC(=O)N[C@@H](C)C(=O)N1CCC[C@H]1C(N)=O)C(C)C [hCT] | 87 ± 4 | 116 ± 6 | 82 ± 4 | 117 ± 15 | 132 ± 9 |  |  |  |  |  |
| CC(C)C[C@H](NC(=O)CNC(=O)[C@H](C)NC(=O)[C@H](CC(C)C)NC(=O)[C@H](CCCNC(=N)N)NC(=O)[C@H](Cc1cnc[nH]1)NC(=O)[C@@H](NC(=O)[C@@H](NC(=O)[C@@H]1CSSC[C@H](NC(=O)[C@H](C)N)C(=O)N[C@@H](CC(=O)O)C(=O)N[C@@H]([C@@H](C)O)C(=O)N[C@@H](C)C(=O)N[C@@H]([C@@H](C)O)C(=O)N1)C(C)C)[C@@H](C)O)C(=O)N[C@@H](CC(C)C)C(=O)N[C@@H](CO)C(=O)N[C@@H](CCCNC(=N)N)C(=O)N[C@@H](CO)C(=O)NCC(=O)NCC(=O)N[C@H](C(=O)N[C@H](C(=O)N[C@@H](CCCCN)C(=O)N[C@@H](CC(N)=O)C(=O)N[C@@H](CC(N)=O)C(=O)N[C@@H](Cc1ccccc1)C(=O)N[C@H](C(=O)N1CCC[C@H]1C(=O)N[C@H](C(=O)N[C@@H](CC(N)=O)C(=O)N[C@H](C(=O)NCC(=O)N[C@@H](CO)C(=O)N[C@@H](CCCCN)C(=O)N[C@@H](C)C(=O)N[C@@H](Cc1ccccc1)C(N)=O)C(C)C)[C@@H](C)O)C(C)C)C(C)C)C(C)C [hαCGRP] | 106 ± 18 | […] | […] | […] | 102 ± 16 | […] | 19.5 | […] | 38.9 | 97.7 |
| CSCC[C@H](NC(=O)CNC(=O)[C@H](CO)NC(=O)[C@H](Cc1ccccc1)NC(=O)[C@H](CCCNC(=N)N)NC(=O)[C@H](Cc1c[nH]cn1)NC(=O)[C@H](Cc1ccccc1)NC(=O)[C@H](CC(N)=O)NC(=O)[C@H](CC(N)=O)NC(=O)[C@H](CC(C)C)NC(=O)[C@H](CC(N)=O)NC(=O)[C@H](CCCNC(=N)N)NC(=O)[C@H](Cc1c[nH]c2ccccc12)NC(=O)[C@H](Cc1ccc(O)cc1)NC(=O)[C@H](C)NC(=O)[C@H](CO)NC(=O)[C@H](CC(C)C)NC(=O)[C@@H](NC(=O)[C@@H]1CSSC[C@H](N)C(=O)N[C@@H](CO)C(=O)N[C@@H](CC(N)=O)C(=O)N[C@@H](CC(C)C)C(=O)N[C@@H](CO)C(=O)N[C@@H]([C@@H](C)O)C(=O)N1)C(C)C)C(=O)NCC(=O)N[C@@H](Cc1ccccc1)C(=O)NCC(=O)N1CCC[C@H]1C(=O)N[C@@H](CCC(=O)O)C(=O)N[C@H](C(=O)N1CCC[C@H]1C(N)=O)[C@@H](C)O [pCT] (H-CSNLSTCVLSAYWRNLNNFHRFSGMGFGPETP-NH2; disulfide 1-7) | 96 ± 8 | 117 ± 11 | 73 ± 13 | 147 ± 16 | 133 ± 9 | 0.0316 | 0.0501 | 0.0158 | 0.646 | 0.148 |
